Activity calls are given as the source filed them. How the calls were made is not given here.
Tests used:
Assay in all cases: receptor, enzyme and CYP inhibition profiling – biochemical, Ricerca HitProfilingScreen, CYP450, selectivity assay for S1P4 antagonist project, profiling panel (AID 489017)
Opiate mu (OP3, MOP) = settings: Ricerca receptor/enzyme binding panel plus CYP450, at 10 µM, active compounds read high
[1] = target: Muscarinic acetylcholine receptor M2 (Homo sapiens) (UniProt P08172); settings: Ricerca receptor/enzyme binding panel plus CYP450, at 10 µM, active compounds read high
Chain of Muscarinic acetylcholine receptor M2 (Homo sapiens) (P08172 whole entry, looked up): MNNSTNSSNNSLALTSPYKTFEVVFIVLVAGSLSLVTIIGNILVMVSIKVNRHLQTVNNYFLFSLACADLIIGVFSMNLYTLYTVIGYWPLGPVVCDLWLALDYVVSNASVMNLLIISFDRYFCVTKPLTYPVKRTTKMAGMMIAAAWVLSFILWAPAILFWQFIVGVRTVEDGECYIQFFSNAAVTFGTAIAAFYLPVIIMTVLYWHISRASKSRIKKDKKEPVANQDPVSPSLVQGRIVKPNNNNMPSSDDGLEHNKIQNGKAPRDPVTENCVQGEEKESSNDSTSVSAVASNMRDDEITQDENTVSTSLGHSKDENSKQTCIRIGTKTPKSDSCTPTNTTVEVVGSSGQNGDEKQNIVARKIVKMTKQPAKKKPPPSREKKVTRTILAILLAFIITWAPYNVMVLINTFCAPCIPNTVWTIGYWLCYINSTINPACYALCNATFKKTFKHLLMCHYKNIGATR

[2] = tested on: Norepinephrine Transporter (NET); settings: Ricerca receptor/enzyme binding panel plus CYP450, at 10 µM, active compounds read high
Nicotinic Acetylcholine = settings: Ricerca receptor/enzyme binding panel plus CYP450, at 10 µM, active compounds read high
[3] = tested on: Alpha-2A adrenergic receptor (Homo sapiens) + Histamine H1 receptor (Homo sapiens) + Mu-type opioid receptor (Homo sapiens); settings: Ricerca receptor/enzyme binding panel plus CYP450; at 10 µM; active compounds read high
[4] = target: Cytochrome P450 1A2 (Homo sapiens) (UniProt P05177); settings: Ricerca receptor/enzyme binding panel plus CYP450; CYP450 1A2; at 10 µM; active compounds read high
Chain of Cytochrome P450 1A2 (Homo sapiens) (P05177 whole entry, looked up): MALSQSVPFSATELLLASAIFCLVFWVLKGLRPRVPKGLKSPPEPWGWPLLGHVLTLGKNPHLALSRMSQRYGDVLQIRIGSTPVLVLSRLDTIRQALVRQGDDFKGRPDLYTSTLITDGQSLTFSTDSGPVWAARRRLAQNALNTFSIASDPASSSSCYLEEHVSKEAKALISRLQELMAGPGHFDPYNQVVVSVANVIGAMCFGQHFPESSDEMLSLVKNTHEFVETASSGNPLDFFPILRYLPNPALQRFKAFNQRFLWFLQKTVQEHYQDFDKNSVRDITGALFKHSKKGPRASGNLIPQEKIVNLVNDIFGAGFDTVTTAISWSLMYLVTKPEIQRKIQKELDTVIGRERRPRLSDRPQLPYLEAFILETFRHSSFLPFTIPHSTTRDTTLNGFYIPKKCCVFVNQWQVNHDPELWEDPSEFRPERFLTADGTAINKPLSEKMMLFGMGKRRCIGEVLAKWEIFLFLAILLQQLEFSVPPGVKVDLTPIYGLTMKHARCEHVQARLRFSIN

[5] = target: Cytochrome P450 2C9 (Homo sapiens) (UniProt P11712); settings: Ricerca receptor/enzyme binding panel plus CYP450; CYP450 2C9; at 10 µM; active compounds read high
[6] = target: D(1A) dopamine receptor (Homo sapiens) (UniProt P21728); settings: Ricerca receptor/enzyme binding panel plus CYP450; Dopamine D1; at 10 µM; active compounds read high
[7] = target: Voltage-gated inwardly rectifying potassium channel KCNH2 (Homo sapiens) (UniProt Q12809); settings: Ricerca receptor/enzyme binding panel plus CYP450; Potassium Channel hERG; at 10 µM; active compounds read high
Chain of Voltage-gated inwardly rectifying potassium channel KCNH2 (Homo sapiens) (Q12809 whole entry, looked up): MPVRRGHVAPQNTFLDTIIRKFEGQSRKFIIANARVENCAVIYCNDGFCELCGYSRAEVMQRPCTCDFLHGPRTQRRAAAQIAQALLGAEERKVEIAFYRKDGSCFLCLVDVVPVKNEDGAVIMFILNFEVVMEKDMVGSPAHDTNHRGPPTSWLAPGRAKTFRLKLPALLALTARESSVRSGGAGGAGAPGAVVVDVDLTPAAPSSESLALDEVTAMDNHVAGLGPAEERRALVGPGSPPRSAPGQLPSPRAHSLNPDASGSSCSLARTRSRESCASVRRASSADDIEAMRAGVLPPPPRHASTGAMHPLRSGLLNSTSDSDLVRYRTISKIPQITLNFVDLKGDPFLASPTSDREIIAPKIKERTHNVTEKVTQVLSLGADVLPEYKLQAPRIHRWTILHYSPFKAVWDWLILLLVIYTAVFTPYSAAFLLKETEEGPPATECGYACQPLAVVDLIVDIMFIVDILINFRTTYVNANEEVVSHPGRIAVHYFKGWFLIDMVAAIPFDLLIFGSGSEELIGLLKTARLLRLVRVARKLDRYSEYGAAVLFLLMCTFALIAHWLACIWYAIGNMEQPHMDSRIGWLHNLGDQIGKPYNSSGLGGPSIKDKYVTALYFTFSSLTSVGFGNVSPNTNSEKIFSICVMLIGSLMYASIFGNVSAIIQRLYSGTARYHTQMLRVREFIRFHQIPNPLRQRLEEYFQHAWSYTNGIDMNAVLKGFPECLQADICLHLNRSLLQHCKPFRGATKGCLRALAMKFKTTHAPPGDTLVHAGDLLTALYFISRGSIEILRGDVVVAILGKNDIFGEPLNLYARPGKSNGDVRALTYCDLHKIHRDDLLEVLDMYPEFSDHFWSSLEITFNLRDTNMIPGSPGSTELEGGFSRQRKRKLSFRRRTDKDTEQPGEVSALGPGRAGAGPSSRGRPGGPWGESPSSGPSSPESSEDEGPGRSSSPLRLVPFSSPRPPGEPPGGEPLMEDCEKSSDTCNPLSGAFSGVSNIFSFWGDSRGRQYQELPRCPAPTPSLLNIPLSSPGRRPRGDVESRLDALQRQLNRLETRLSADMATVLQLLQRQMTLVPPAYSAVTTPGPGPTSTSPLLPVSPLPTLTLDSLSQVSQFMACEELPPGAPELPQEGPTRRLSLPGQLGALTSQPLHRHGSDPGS

Calcium Channel L-Type = settings: Ricerca receptor/enzyme binding panel plus CYP450, Dihydropyridine site, at 10 µM, active compounds read high
[8] = target: Muscarinic acetylcholine receptor M3 (Homo sapiens) (UniProt P20309); settings: Ricerca receptor/enzyme binding panel plus CYP450, at 10 µM, active compounds read high
Chain of Muscarinic acetylcholine receptor M3 (Homo sapiens) (P20309 whole entry, looked up): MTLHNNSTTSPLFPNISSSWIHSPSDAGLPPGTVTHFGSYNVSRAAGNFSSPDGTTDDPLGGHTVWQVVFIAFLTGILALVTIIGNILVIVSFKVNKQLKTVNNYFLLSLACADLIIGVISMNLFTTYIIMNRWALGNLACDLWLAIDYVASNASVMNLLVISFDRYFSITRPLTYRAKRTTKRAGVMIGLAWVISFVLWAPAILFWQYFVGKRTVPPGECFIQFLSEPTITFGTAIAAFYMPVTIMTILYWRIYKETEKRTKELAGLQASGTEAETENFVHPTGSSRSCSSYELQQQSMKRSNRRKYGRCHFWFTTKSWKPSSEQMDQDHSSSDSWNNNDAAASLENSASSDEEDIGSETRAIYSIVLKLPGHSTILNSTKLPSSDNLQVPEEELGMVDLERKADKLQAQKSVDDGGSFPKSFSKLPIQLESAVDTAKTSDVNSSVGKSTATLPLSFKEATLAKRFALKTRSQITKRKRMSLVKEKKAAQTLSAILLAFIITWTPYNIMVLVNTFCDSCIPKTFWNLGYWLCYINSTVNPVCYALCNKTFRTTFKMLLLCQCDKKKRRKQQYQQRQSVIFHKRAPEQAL

Histamine H1 = settings: Ricerca receptor/enzyme binding panel plus CYP450, at 10 µM, active compounds read high
[9] = target: Cytochrome P450 2D6 (Homo sapiens) (UniProt P10635); settings: Ricerca receptor/enzyme binding panel plus CYP450; CYP450 2D6; at 10 µM; active compounds read high
Chain of Cytochrome P450 2D6 (Homo sapiens) (P10635 whole entry, looked up): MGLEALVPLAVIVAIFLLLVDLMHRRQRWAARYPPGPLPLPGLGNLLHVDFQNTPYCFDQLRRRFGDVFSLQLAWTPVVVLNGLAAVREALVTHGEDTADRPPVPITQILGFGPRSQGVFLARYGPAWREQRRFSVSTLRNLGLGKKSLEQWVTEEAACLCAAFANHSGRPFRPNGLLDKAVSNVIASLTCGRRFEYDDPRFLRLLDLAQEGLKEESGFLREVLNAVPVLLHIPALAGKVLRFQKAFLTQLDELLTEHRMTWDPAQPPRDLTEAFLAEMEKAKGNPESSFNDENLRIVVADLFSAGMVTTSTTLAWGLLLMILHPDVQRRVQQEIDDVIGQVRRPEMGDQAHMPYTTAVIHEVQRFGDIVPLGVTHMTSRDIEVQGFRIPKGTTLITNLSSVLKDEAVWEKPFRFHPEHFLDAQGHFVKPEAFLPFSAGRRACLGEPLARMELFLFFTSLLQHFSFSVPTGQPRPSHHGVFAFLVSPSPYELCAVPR

Adenosine A2A = settings: Ricerca receptor/enzyme binding panel plus CYP450, at 10 µM, active compounds read high
Adenosine A1 = settings: Ricerca receptor/enzyme binding panel plus CYP450, at 10 µM, active compounds read high
Glutamate NMDA = settings: Ricerca receptor/enzyme binding panel plus CYP450, Phencyclidine site, at 10 µM, active compounds read high
Dopamine D2S = settings: Ricerca receptor/enzyme binding panel plus CYP450, at 10 µM, active compounds read high
[10] = target: Alpha-2A adrenergic receptor (Homo sapiens) (UniProt P08913); settings: Ricerca receptor/enzyme binding panel plus CYP450; Adrenergic alpha2A; at 10 µM; active compounds read high
Chain of Alpha-2A adrenergic receptor (Homo sapiens) (P08913 whole entry, looked up): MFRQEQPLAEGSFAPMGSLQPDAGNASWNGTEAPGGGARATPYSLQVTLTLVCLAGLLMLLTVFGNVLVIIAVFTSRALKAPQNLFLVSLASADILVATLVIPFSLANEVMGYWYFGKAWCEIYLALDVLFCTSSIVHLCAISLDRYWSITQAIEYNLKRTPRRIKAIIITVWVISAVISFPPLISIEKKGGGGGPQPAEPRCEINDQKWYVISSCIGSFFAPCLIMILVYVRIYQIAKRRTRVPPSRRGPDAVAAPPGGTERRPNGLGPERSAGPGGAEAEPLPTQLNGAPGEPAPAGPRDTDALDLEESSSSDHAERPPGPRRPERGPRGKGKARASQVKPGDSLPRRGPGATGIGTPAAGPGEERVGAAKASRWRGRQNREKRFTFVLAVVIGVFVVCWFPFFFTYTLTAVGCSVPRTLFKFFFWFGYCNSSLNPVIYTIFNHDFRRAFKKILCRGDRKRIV

[11] = target: 5-hydroxytryptamine receptor 2B (Homo sapiens) (UniProt P41595); settings: Ricerca receptor/enzyme binding panel plus CYP450; Serotonin (5-Hydroxytryptamine) 5-HT2B; at 10 µM; active compounds read high
Chain of 5-hydroxytryptamine receptor 2B (Homo sapiens) (P41595 whole entry, looked up): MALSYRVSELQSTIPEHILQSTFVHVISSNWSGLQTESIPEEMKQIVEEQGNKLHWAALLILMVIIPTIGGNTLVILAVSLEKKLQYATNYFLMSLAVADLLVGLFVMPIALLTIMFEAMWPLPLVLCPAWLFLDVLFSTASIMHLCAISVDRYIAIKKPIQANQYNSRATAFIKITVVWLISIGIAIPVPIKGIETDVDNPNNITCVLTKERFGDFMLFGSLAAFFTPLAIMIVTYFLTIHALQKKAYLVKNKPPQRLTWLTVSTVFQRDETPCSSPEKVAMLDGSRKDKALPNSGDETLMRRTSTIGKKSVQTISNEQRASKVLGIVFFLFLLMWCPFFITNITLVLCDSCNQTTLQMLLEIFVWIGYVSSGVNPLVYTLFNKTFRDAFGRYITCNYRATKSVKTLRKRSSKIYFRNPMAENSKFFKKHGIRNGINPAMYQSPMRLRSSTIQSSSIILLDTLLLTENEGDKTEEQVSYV

GABAA Central = settings: at 10 µM, active compounds read high
Sodium Channel = settings: Ricerca receptor/enzyme binding panel plus CYP450, site 2, at 10 µM, active compounds read high
[12] = target: Beta-2 adrenergic receptor (Homo sapiens) (UniProt P07550); settings: Ricerca receptor/enzyme binding panel plus CYP450; Adrenergic beta2; at 10 µM; active compounds read high
Adrenergic beta1 = settings: Ricerca receptor/enzyme binding panel plus CYP450, at 10 µM, active compounds read high
CYP450 2C19 = settings: Ricerca receptor/enzyme binding panel plus CYP450, at 10 µM, active compounds read high
Cannabinoid CB1 = settings: Ricerca receptor/enzyme binding panel plus CYP450, at 10 µM, active compounds read high
[13] = target: Cytochrome P450 3A4 (Homo sapiens) (UniProt P08684); settings: Ricerca receptor/enzyme binding panel plus CYP450; CYP450 3A4; at 10 µM; active compounds read high
Chain of Cytochrome P450 3A4 (Homo sapiens) (P08684 whole entry, looked up): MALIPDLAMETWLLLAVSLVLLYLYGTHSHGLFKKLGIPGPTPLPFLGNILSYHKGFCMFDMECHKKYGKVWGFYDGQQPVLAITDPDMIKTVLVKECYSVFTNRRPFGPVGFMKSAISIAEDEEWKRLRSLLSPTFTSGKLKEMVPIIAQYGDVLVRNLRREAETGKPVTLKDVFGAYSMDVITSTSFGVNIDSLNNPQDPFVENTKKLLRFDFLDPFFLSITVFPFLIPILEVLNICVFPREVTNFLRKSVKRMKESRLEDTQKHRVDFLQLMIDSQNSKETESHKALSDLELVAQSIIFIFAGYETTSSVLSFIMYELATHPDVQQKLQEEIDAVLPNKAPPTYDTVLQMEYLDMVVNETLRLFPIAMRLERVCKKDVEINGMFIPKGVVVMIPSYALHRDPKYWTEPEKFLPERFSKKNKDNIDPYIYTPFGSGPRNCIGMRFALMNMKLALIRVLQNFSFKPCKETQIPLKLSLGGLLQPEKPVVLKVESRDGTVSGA

Sigma 1 = settings: Ricerca receptor/enzyme binding panel plus CYP450, at 10 µM, active compounds read high
Adrenergic alpha1B = settings: Ricerca receptor/enzyme binding panel plus CYP450, at 10 µM, active compounds read high
Prostanoid EP4 = settings: Ricerca receptor/enzyme binding panel plus CYP450, at 10 µM, active compounds read high
Adrenergic alpha1A = settings: Ricerca receptor/enzyme binding panel plus CYP450, at 10 µM, active compounds read high

CCc1cccc(CC)c1NC(=O)c1ccc(-c2cc(Cl)ccc2Cl)o1
inhibition (Opiate mu (OP3, MOP)): 8% (inactive) | inhibition [1]: -3% (inactive) | inhibition [2]: 17% (inactive) | inhibition (Nicotinic Acetylcholine): -12% (inactive) | inhibition [3]: -4% (inactive) | inhibition [4]: 27% (inactive) | inhibition [5]: 51% | inhibition [6]: 5% (inactive) | inhibition [7]: 10% (inactive) | inhibition (Calcium Channel L-Type): 12% (inactive) | inhibition [8]: 2% (inactive) | inhibition (Histamine H1): 30% (inactive) | inhibition [9]: 1% (inactive) | inhibition (Adenosine A2A): -6% (inactive) | inhibition (Adenosine A1): 0% (inactive) | inhibition (Glutamate NMDA): 1% (inactive) | inhibition (Dopamine D2S): 13% (inactive) | inhibition [10]: 18% (inactive) | inhibition [11]: 40% (inactive) | inhibition (GABAA Central; Ricerca receptor/enzyme binding panel plus CYP450, Flunitrazepam site): 7% (inactive) | inhibition (GABAA Central; Ricerca receptor/enzyme binding panel plus CYP450, Muscimol site): 8% (inactive) | inhibition (Sodium Channel): 43% (inactive) | inhibition [12]: 11% (inactive) | inhibition (Adrenergic beta1): 0% (inactive) | inhibition (CYP450 2C19): 37% (inactive) | inhibition (Cannabinoid CB1): 15% (inactive) | inhibition [13]: 22% (inactive) | inhibition (Sigma 1): -7% (inactive) | inhibition (Adrenergic alpha1B): -6% (inactive) | inhibition (Prostanoid EP4): 27% (inactive) | inhibition (Adrenergic alpha1A): -3% (inactive)

From PubChem BioAssay AID489017 (The Scripps Research Institute Molecular Screening Center, 2010)
